We go through ten compounds from patent US12059422B2 (MEI Pharma, Inc., priority 2011, dated 2024).

Test [1] concerns the target PI3Kα (Homo sapiens, UniProt P42336). As to the kind of experiment: ELISA assay for PI3Kα: in-cell ELISA, phosphorylation of AKT (Thr308) in MDA-MB-453 cells. It is filed as cell-based. The note with it: cellular, pAKT (Thr308), IGF-1 stimulation, read-out: IC50 p110α. The procedure:
PI3K alpha (PI3Kα) activity was determined by measuring the phosphorylation of AKT (Thr308) using an in-cell ELISA assay. MDA-MB-453 (breast carcinoma) cells were obtained from ATCC (ATCC #HTB-131). Growth medium was DMEM (CellGro #CV-10-013-CV) supplemented with 10% fetal bovine serum, 100 IU/mL penicillin, 100 μg/mL streptomycin, and 1×MEM non-essential amino acids. Phosphate buffered saline (PBS) contained 2.7 M NaCl, 54 mM KCl, 86 mM […] (dibasic, anhydrous), and 28 mM […] (monobasic, anhydrous) at pH 7.2. Stimulation mixture (10×) was 1000 ng/mL LONG® R^3 human IGF-1 (Sigma #I1271) diluted in serum-free DMEM medium (CellGro #CV-10-013-CV). Compounds for testing were dissolved and serially diluted in 100% DMSO (total of 10 concentrations), then diluted in serum-free DMEM to 2× final assay concentration. Fixative solution (2×) was 8% formaldehyde (Amresco #M134) diluted in PBS. Permeabilization solution was PBS supplemented with 0.1% Triton X-100. Blocking buffer was obtained from LiCor (LiCor #927-40000). Wash buffer was PBS supplemented with 0.1% Tween-20. Primary antibody solution was rabbit anti-pAKT^T308 monoclonal antibody (Cell Signaling #2965) and mouse anti-total S6 (Santa Cruz #74459) diluted 1:500 and 1:2000, respectively, in the blocking buffer. Secondary antibody solution was IRDye 800CW-conjugated goat anti-rabbit IgG (LiCor #926-32211) and IRDye 680LT-conjugated goat anti-mouse IgG (LiCor #926-68020) diluted 1:1000 and 1:2000, respectively, in the blocking buffer.
MDA-MB-453 cells were subcultured in growth medium and seeded into flat, clear bottom, 96-well plates (Corning #3904) at 40000 cells/well, then incubated overnight in a 5% CO2 incubator at 37° C. Growth medium in plates was replaced with 100 μL/well serum-free DMEM and incubated overnight at 37° C. in a 5% CO2 incubator. Fresh serum-free DMEM (50 μL/well) was added to plates. Compound treatment was performed by adding 50 μL/well of 2× compound mixture to plates and incubating for 1 hr at 37° C. and 5% CO2, after which 11 μL/well of 10× stimulation mixture was added and plates were incubated for 10 min at 37° C. and 5% CO2. Fixation was performed by adding 110 μL/well of 2× fixative solution to the plates and incubating for 20 min at room temperature. Permeabilization was performed by replacing fixation solution with 150 μL/well permeabilization solution and incubating for 10 min at room temperature. Permeabilization was repeated (for a total of 2 times). Permeabilization solution was replaced with 100 μL/well blocking buffer and plates were incubated for 1 hour at room temperature, after which 100 μL/well of primary antibody solution was added and plates were incubated overnight at 4° C. Plates were washed with wash buffer, after which 100 μL/well of secondary antibody solution was added to the plates and incubated in the dark for 1 hr at room temperature. Plates were washed with wash buffer, followed by a wash with PBS. After completely removing PBS, plates were scanned on the Licor Odyssey Imager. Images were quantified using Licor Odyssey application software. IC50 values were determined by curve fitting using a Collaborative Drug Discovery database (www.collaborativedrug.com).
(In general: An ELISA detects its analyte on a solid surface through an enzyme-linked reagent.)

The target of test [2] is mTOR (Homo sapiens, UniProt P42345). The experiment in a line: mTOR inhibition (Table 1). It is filed as biochemical. Particulars: Table 1, no method described.
The target of test [3] is T1, PI3Kδ (Homo sapiens, UniProt O00329).
T1 construct: endogenous in cells; host or cells: Raji (ATCC #CCL-86)
T1 sequence (O00329 whole entry): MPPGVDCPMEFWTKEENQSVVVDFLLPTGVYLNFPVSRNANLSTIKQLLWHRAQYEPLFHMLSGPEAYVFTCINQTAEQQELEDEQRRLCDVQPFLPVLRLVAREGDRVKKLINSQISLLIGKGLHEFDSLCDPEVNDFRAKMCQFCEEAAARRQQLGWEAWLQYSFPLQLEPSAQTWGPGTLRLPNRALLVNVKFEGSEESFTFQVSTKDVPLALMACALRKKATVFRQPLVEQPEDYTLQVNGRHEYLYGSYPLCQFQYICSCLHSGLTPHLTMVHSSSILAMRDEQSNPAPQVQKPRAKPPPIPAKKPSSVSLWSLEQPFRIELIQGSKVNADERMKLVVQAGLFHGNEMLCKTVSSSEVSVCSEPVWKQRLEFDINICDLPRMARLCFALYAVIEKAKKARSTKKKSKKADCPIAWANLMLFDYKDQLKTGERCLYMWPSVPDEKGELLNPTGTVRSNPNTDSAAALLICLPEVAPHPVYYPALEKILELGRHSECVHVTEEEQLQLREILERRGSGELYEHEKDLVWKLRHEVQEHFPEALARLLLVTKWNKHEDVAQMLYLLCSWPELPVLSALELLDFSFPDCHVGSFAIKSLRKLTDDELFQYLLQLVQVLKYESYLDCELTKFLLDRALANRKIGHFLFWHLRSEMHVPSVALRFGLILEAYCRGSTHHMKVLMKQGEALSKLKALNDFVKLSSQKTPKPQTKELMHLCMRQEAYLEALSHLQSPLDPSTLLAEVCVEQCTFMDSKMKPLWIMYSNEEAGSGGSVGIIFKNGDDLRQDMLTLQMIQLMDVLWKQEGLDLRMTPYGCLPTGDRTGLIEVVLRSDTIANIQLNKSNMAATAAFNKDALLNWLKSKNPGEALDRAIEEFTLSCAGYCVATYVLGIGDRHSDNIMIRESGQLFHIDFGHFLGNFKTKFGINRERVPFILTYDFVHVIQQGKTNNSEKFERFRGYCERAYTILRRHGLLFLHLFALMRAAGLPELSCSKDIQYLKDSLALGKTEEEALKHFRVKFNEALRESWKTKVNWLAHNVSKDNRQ
T1 sequence (P27986 whole entry partner): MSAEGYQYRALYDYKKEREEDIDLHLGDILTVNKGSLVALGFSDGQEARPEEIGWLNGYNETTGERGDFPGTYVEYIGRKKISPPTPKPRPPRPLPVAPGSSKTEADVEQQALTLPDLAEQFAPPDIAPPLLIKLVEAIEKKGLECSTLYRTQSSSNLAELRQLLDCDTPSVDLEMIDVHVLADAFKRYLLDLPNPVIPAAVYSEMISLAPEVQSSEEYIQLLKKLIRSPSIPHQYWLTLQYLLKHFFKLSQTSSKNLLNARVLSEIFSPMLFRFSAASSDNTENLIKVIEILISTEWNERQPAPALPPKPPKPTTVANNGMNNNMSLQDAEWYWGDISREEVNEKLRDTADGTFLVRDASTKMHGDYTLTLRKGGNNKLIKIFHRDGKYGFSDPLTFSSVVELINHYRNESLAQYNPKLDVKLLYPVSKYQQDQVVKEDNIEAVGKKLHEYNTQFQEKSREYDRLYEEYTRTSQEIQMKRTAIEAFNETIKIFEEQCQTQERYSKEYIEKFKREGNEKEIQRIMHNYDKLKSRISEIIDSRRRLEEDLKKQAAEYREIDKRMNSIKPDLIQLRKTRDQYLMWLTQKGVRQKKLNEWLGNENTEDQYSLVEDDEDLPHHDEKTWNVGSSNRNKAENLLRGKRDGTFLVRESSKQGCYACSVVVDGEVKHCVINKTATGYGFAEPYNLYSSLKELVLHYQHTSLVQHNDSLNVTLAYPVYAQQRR
As to the kind of experiment: ELISA assay for PI3Kδ: sandwich ELISA, phosphorylation of AKT (Thr308) in Raji cells. Particulars: for IC50: cellular, pAKT (Thr308), Raji cells, anti-Human IgM stimulation, read-out: IC50 p110δ; for α/δ ratio / β/δ ratio / γ/δ ratio: ratio of cellular IC50 values, Table 2. It is filed as cell-based. The procedure:
Cellular PI3Kδ activity was determined by measuring the phosphorylation of AKT (Thr308) using a sandwich enzyme-linked immunosorbant assay (ELISA). Raji (Burkitt's Lymphoma) cells were obtained from ATCC (ATCC #CCL-86). Phosphate buffer saline (PBS) contained 2.7 M NaCl, 54 mM KCl, 86 mM […] (dibasic, anhydrous), and 28 mM […] (monobasic, anhydrous) at pH 7.2. Wash buffer contained PBS supplemented with 0.05% Tween-20. Blocking buffer contained wash buffer supplemented with 1% BSA. A 10× stimulation mixture contained 5 μg/mL anti-Human IgM antibody (Sigma #12386) diluted in serum-free RPMI medium (CellGro #CV-10-040-CV). Compounds for testing were dissolved and serially diluted in 100% DMSO (total of 10 concentrations), and then diluted in serum-free RPMI to 5×final assay concentration.
Raji cells were subcultured in RPMI medium supplemented with 10% fetal bovine serum, 100 IU/mL penicillin, 100 μg/mL streptomycin, and 1×MEM non-essential amino acids. Sandwich ELISA plates were prepared by coating 96-well assay plates (Pierce #15042) with 100 μL/well capture antibody (Cell Signaling Technology #7142 or 7144) diluted in PBS. Plates were incubated overnight at 4° C., then washed with wash buffer, after which 200 μL/well blocking buffer was added to the plates and incubated at room temperature for at least 2 hrs. Raji cells were resuspended in serum-free RPMI medium and seeded into V-bottom, 2-mL 96-well blocks (Corning #3961) at 10^6 cells/well, then incubated for 2 hrs in a 37° C., 5% CO2 incubator. Compound treatment was performed by adding the 5× compound mixture to the cells and incubating for 2 hrs at 37° C., 5% CO2, after which the 10× stimulation mixture was added to the plates and incubated for 30 min at 37° C., 5% CO2. Cells were pelleted by centrifuging plates at 1500 RPM for 5 min at room temperature. Media was carefully removed and cells were lysed by adding 100 μL/well cell lysis buffer (Cell Signaling Technology #9803) supplemented with protease and phosphatase inhibitors (Thermo Fisher #78443). Plates were incubated on ice for 30 min, then the lysates (80 μL for pAKT^T308, 10 μL for total AKT) were transferred to prepared assay plates and incubated at 4° C. overnight. After washing plates with wash buffer, 100 μL/well detection antibody (Cell Signaling Technology #7142 or 7144) diluted in blocking buffer was added to the plates and incubated for 1 hr at 37° C. Plates were washed and 100 μL/well of HRP-conjugated secondary antibody (Cell Signaling Technology #7142 or 7144) diluted in blocking buffer was added to plates and incubated for 1 hr at room temperature. Plates were washed with wash buffer and 100 μL/well of luminescent substrate was added to plates. After 1 min on a plate shaker at medium speed, luminescence was read on a Wallac Victor2 plate reader. IC50 values were determined by curve fitting using a Collaborative Drug Discovery database (www.collaborativedrug.com).

Molecules are shown by their SMILES. A value given as a limit tells only on which side of the number the result lay.

PI3Kα, sequence (P27986 2-724): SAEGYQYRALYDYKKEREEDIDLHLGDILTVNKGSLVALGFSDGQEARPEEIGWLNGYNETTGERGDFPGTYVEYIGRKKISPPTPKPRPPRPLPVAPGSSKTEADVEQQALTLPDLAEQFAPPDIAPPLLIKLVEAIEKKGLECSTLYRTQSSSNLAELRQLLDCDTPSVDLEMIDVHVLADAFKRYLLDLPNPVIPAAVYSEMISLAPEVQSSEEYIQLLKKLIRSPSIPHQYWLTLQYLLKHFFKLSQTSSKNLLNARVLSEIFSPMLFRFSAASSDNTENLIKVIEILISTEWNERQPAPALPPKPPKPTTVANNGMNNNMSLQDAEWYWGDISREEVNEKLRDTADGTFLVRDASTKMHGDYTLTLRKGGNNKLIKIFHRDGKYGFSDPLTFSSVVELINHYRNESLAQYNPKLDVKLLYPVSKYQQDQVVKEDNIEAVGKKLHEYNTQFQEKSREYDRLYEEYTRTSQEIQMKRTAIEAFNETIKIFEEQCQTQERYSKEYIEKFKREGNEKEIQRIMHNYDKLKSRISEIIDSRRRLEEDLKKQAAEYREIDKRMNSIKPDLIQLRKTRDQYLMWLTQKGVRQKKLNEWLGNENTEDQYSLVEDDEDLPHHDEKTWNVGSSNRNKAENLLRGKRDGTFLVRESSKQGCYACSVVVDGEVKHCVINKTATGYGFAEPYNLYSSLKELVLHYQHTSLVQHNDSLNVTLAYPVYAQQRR
PI3Kα, sequence (P42336 whole entry): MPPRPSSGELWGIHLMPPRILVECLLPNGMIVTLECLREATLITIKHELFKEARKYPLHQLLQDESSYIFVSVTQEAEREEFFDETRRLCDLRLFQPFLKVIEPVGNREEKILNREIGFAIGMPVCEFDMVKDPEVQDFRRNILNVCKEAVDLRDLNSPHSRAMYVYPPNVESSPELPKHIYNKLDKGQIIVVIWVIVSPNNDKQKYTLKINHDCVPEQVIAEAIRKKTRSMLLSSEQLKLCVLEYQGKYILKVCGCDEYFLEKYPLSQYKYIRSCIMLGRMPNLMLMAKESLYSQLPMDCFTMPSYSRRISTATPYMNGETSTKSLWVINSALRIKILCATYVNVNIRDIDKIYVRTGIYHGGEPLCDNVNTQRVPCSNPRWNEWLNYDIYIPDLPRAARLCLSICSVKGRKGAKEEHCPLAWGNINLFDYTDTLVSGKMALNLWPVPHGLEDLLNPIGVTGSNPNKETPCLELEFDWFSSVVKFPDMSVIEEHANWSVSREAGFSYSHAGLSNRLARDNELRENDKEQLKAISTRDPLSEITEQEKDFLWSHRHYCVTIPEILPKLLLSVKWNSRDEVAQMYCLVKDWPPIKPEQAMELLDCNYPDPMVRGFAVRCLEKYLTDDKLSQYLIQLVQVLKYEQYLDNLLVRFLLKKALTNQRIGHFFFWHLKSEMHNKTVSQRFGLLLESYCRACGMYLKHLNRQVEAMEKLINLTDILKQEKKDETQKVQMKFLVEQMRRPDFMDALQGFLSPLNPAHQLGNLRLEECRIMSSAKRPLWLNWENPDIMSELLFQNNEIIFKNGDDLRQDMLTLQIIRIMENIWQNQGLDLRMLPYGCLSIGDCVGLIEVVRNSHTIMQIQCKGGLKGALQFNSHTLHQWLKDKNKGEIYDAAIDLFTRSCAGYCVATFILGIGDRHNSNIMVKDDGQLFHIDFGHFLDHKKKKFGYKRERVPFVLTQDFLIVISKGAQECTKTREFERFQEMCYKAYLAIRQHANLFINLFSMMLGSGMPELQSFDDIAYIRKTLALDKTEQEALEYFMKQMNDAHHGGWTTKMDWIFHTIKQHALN

What is called IC50 is the concentration that gives 50% inhibition. Consider `CC(C)(Cc1ccccc1C1CCN(S(C)(=O)=O)CC1)Nc1nc(N2CCOCC2)nc(-n2c(C(F)F)nc3ccccc32)n1` [Compound A73, 4-(2-(difluoromethyl)-1H-benzo[d]imidazol-1-yl)-N-(2-methyl-1-(2-(1-(methylsulfonyl)piperidin-4-yl)phenyl)propan-2-yl)-6-morpholino-1,3,5-triazin-2-amine], for which the IC50 in test [1] lay within 200 to 500 nM. In test [2], this compound gave an IC50 of more than 500 nM. In test [3], the IC50 was not above 100 nM, the α/δ ratio entry is on record as “A’”, the β/δ ratio entry is listed as “C’” and the γ/δ ratio entry is listed as “A’”.

For `CC(C)(Cc1ccccc1Cl)Nc1nc(N2CCOCC2)nc(-n2c(C(F)F)nc3ccccc32)n1` [Compound A16, 4-(2-(difluoromethyl)-1H-benzo[d]imidazol-1-yl)-N-(1-(2-chlorophenyl)-2-methylpropan-2-yl)-6-morpholino-1,3,5-triazin-2-amine], the concentration for half-maximal inhibition (IC50) in test [1] was more than 500 nM. This compound registered an IC50 in test [2] of more than 500 nM. Further, in test [3], the IC50 was not above 100 nM, the α/δ ratio entry is “A’”, the β/δ ratio entry is “A’” and the γ/δ ratio result is on record as “A’”.

On to `CN1CCC(c2ccccc2CC(C)(C)Nc2nc(N3CCOCC3)nc(-n3c(C(F)F)nc4ccccc43)n2)C1` (stereo not drawn) [Compound A75, 4-(2-(difluoromethyl)-1H-benzo[d]imidazol-1-yl)-N-(2-methyl-1-(2-(1-methylpyrrolidin-3-yl)phenyl)propan-2-yl)-6-morpholino-1,3,5-triazin-2-amine], for which the IC50 in test [1] is more than 500 nM. Besides, in test [3], the half-maximal inhibitory concentration (IC50) is not above 100 nM, the α/δ ratio result is “A’”, the β/δ ratio result is given as “B’” and the γ/δ ratio entry is “A’”.

Turning to `CC(C)(Cc1c(F)cccc1F)Nc1nc(N2CCOCC2)nc(-n2c(C(F)F)nc3ccccc32)n1` [Compound A52, 4-(2-(difluoromethyl)-1H-benzo[d]imidazol-1-yl)-N-(1-(2,6-difluorophenyl)-2-methylpropan-2-yl)-6-morpholino-1,3,5-triazin-2-amine], the IC50 in test [1] was more than 500 nM. Moreover, the IC50 in test [2] was more than 500 nM. In test [3], the IC50 is not above 100 nM, the α/δ ratio result is “A’”, the β/δ ratio entry was “D’” and the γ/δ ratio entry is “A’”.

Regarding `COc1ccc(-c2ccccc2CC(C)(C)Nc2nc(N3CCOCC3)nc(-n3c(C(F)F)nc4ccccc43)n2)cc1` [Compound A67, 4-(2-(difluoromethyl)-1H-benzo[d]imidazol-1-yl)-N-(1-(4′-methoxybiphenyl-2-yl)-2-methylpropan-2-yl)-6-morpholino-1,3,5-triazin-2-amine], in test [1], the IC50 is more than 500 nM. Besides, the IC50 in test [2] is more than 500 nM. In test [3], the concentration for half-maximal inhibition (IC50) was not above 100 nM, the α/δ ratio result is recorded as “A’”, the β/δ ratio result is reported as “A’” and the γ/δ ratio result is recorded as “A’”.

In test [2], `COc1ccccc1CC(C)(C)Nc1nc(N2CCOCC2)nc(-n2c(C(F)F)nc3ccccc32)n1` [Compound A19, 4-(2-(difluoromethyl)-1H-benzo[d]imidazol-1-yl)-N-(1-(2-methoxyphenyl)-2-methylpropan-2-yl)-6-morpholino-1,3,5-triazin-2-amine] had a concentration for half-maximal inhibition (IC50) of more than 500 nM. Also, in test [3], the half-inhibitory concentration (IC50) is not above 100 nM and the β/δ ratio entry is listed as “D’”.

Take `Cc1ccccc1-c1ccccc1CC(C)(C)Nc1nc(N2CCOCC2)nc(-n2c(C(F)F)nc3ccccc32)n1` [Compound A60, 4-(2-(difluoromethyl)-1H-benzo[d]imidazol-1-yl)-N-(2-methyl-1-(2′-methylbiphenyl-2-yl)propan-2-yl)-6-morpholino-1,3,5-triazin-2-amine]: the half-inhibitory concentration (IC50) in test [1] was more than 500 nM. In addition, the IC50 in test [2] is more than 500 nM. In test [3], the 50% inhibitory concentration (IC50) was not above 100 nM, the α/δ ratio entry is reported as “A’”, the β/δ ratio entry is given as “A’” and the γ/δ ratio entry was “A’”.

In the case of `Cc1cc(-c2ccccc2CC(C)(C)Nc2nc(N3CCOCC3)nc(-n3c(C(F)F)nc4ccccc43)n2)ccn1` [Compound A43, 4-(2-(difluoromethyl)-1H-benzo[d]imidazol-1-yl)-N-(2-methyl-1-(2-(2-methylpyridin-4-yl)phenyl)propan-2-yl)-6-morpholino-1,3,5-triazin-2-amine], the 50% inhibitory concentration (IC50) in test [1] is more than 500 nM. Further, in test [2], the IC50 was more than 500 nM. In addition, in test [3], the IC50 is not above 100 nM, the α/δ ratio result is reported as “A’”, the β/δ ratio result is recorded as “A’” and the γ/δ ratio result is on record as “A’”.

Turning to `CC(C)(Cc1cccc2ccccc12)Nc1nc(N2CCOCC2)nc(-n2c(C(F)F)nc3ccccc32)n1` [Compound A27, 4-(2-(difluoromethyl)-1H-benzo[d]imidazol-1-yl)-N-(2-methyl-1-(naphthalen-1-yl)propan-2-yl)-6-morpholino-1,3,5-triazin-2-amine], in test [2], the concentration for half-maximal inhibition (IC50) is more than 500 nM. For the same compound, in test [3], the IC50 was not above 100 nM and the β/δ ratio entry is listed as “C’”.

Compound `CC(C)(Cc1ccccc1-c1ccncc1)Nc1nc(N2CCOCC2)nc(-n2c(C(F)F)nc3ccccc32)n1` [Compound A33, 4-(2-(difluoromethyl)-1H-benzo[d]imidazol-1-yl)-N-(2-methyl-1-(2-(pyridin-4-yl)phenyl)propan-2-yl)-6-morpholino-1,3,5-triazin-2-amine] showed a 50% inhibitory concentration (IC50) in test [2] of more than 500 nM. Moreover, in test [3], the IC50 is not above 100 nM, the β/δ ratio entry is “A’” and the γ/δ ratio entry is reported as “A’”.
